PMC10873978, “Novel tetrahydroisoquinolines as DHFR and CDK2 inhibitors: synthesis, characterization, anticancer activity and antioxidant properties” (BMC Chemistry, 2024)
“Also recorded” adds a separate entry of the source.

Legend:
[1] = DPPH scavenging antioxidant activity; conditions: for antioxidant activity compared with Vitamin C: DPPH
Description: The antioxidant activity of ten compounds was determined using DPPH [32–34]. A solution 1: prepared by dissolving DPPH (0.002 g) in ethanol (50 mL etnanol). Solution 2: prepared by dissolving different weights 0.05, 0.01 g of each sample in 1 mL of DMSO then take 10 µL of each sample solution with 1 mL ethanol. Then mix 1 mL of solution 1 with 1 mL of solution 2 then vortex the resulting mixture in the dark for about 30 min. The absorbance of the mixture was measured by spectrophotometer at λmax = 517 nm against blank 1 mL absolute ethanol and compared to the ascorbic acid (Vitamin C).
Ten newly synthesized compounds were studied as in vitro antioxidants by measuring of their DPPH scavenging activity which is represented as a percentage % [32]^. Results are represented by mean ± SD of three replicates. […] The higher dose concentration of 0.05 μg/mL represents higher antioxidant activity. […] The high antioxidant activity is referred to the presence of C=O, NH2, and OH groups like ascorbic acid which can be easily oxidized and reduced and can be used as antioxidant drugs. (Fig. 8 and Table 9).

A549 cell line = assay: In vitro cytotoxic activity, MTT method, A549; conditions: for IC50: Homo sapiens, read-out: IC50 ± SD
Description: (§1) Cell lines: The in vitro human breast cancerous cell line (MCF7), lung cancerous cell lines (A549) and normal cell lines were purchased from Serum and Vaccine formulation in Cairo-Egypt.
(§2) In vitro cytotoxic activity of all synthesized compounds against two human breast cell line (MCF7) and lung cell lines (A549) was evaluated according to the MTT method. Firstly, Growth the cell line medium in 96 well tissue culture plate was injected with 10^5 cells/mL (100 uL/plate well) of the cell line and incubated at 37 °C for 24 h to develop a monolayer sheet then the formed growth medium was poured from 96 well microtiter plates after the confluent sheet of cells. […] Secondly, add 0.1 mL of each concentration tetrahydroisoquinoline sample to each plate. The plates were incubated at 37 °C. Thirdly MTT solution (5 mg/mL in PBS) is prepared. Add 20 µL of MTT solution to each well plates. And shaking in 150 rpm for 5 min, to mix the MTT into the media. Then incubate at (37 °C, 5% CO2) for 1–5 h. Finally read the optical density at 560 nm and subtract background at 620 nm.
(§3) In this work, doxorubicin was used as a positive control drug for comparison with the synthesized compounds under the same experimental conditions.

MCF7 cell line = assay: In vitro cytotoxic activity, MTT method, MCF7; type: cell-based, human; conditions: for IC50: Homo sapiens, MCF7, MCF7 cell line, MTT
Description: as §1, §2, §3

## CC(=O)C1C(c2ccc(N(C)C)cc2)c2c(C)[nH]c(=S)c(C#N)c2CC1(C)O (stereo not shown) [Compound 1, 7-Acetyl-4-cyano-1,6-dimethyl-6-hydroxy-8-(4-N,N-dimethylaminophenyl)-5,6,7,8-tetrahydroisoquinoline-3(2H)-thione]
[1]; 0.01 µg/mL
  DPPH scavenging, inhibition (%): 61.01 ± 0.58%
[1]; 0.05 µg/mL
  DPPH scavenging, inhibition (%): 92.3 ± 0.44%
[1]
  antioxidant activity compared with Vitamin C: higher result than Vitamin C; also recorded: higher antioxidant activity than Vitamin C
A549 cell line; A549, Conc. 0.0487 µMol
  Toxicity %: 1%
  Viability %: 99%
A549 cell line; A549, Conc. 0.0975 µMol
  Viability %: 98.2%
A549 cell line; A549, Conc. 0.195 µMol
  Toxicity %: 3%
  Viability %: 97%
A549 cell line; A549, Conc. 0.391 µMol
  Toxicity %: 7.89%
  Viability %: 92.11%
A549 cell line; A549, Conc. 0.781 µMol
  Toxicity %: 21.85%
  Viability %: 78.15%
A549 cell line; A549, Conc. 1.562 µMol
  Toxicity %: 34.99%
  Viability %: 65.01%
A549 cell line; A549, Conc. 3.125 µMol
  Toxicity %: 59.76%
  Viability %: 40.24%
A549 cell line; A549, Conc. 6.25 µMol
  Toxicity %: 76.21%
  Viability %: 23.79%
A549 cell line; A549, Conc. 12.5 µMol
  Toxicity %: 90.77%
  Viability %: 9.231%
A549 cell line; A549, Conc. 25 µMol
  Toxicity %: 96.84%
  Viability %: 3.156%
A549 cell line
  IC50: 2219 ± 2 nM
MCF7 cell line
  IC50: 1857 ± 8 nM
MCF7 cell line; MCF7, 0.0487 µMol
  Toxicity %: 0.2745%
  Viability %: 99.73%
MCF7 cell line; MCF7, 0.0975 µMol
  Toxicity %: 0.3246%
  Viability %: 99.68%
MCF7 cell line; MCF7, 0.195 µMol
  Toxicity %: 0.4493%
  Viability %: 99.55%
MCF7 cell line; MCF7, 0.391 µMol
  Viability %: 91.95%
MCF7 cell line; MCF7, 0.781 µMol
  Toxicity %: 23.53%
  Viability %: 76.47%
MCF7 cell line; MCF7, 1.562 µMol
  Toxicity %: 46.08%
  Viability %: 53.92%
MCF7 cell line; MCF7, 3.125 µMol
  Toxicity %: 76.35%
  Viability %: 23.65%
MCF7 cell line; MCF7, 6.25 µMol
  Toxicity %: 86.93%
  Viability %: 13.07%
MCF7 cell line; MCF7, 12.5 µMol
  Toxicity %: 93.63%
  Viability %: 6.373%
MCF7 cell line; MCF7, 25 µMol
  Toxicity %: 97.3%
  Viability %: 2.696%

## CSc1nc(C)c2c(c1C#N)CC(C)(O)C(C(C)=O)C2c1ccc(N(C)C)cc1 (stereo not shown) [Compound 3, 7-Acetyl-4-cyano-1,6-dimethyl-3-methylthio-6-hydroxy-8-(4-N,N-dimethyl-aminophenyl)-5,6,7,8-tetrahydroisoquinoline]
[1]; 0.01 µg/mL
  DPPH scavenging, inhibition (%): 25.58 ± 2.20%
[1]; 0.05 µg/mL
  DPPH scavenging, inhibition (%): 81.39 ± 3.87%
[1]
  antioxidant activity compared with Vitamin C: higher result than Vitamin C; also recorded: higher antioxidant activity than Vitamin C
A549 cell line; A549, Conc. 0.0487 µMol
  Toxicity %: 0.30%
  Viability %: 99.700%
A549 cell line; A549, Conc. 0.0975 µMol
  Toxicity %: 0.50%
  Viability %: 99.50%
A549 cell line; A549, Conc. 0.195 µMol
  Toxicity %: 0.789%
  Viability %: 99.21%
A549 cell line; A549, Conc. 0.391 µMol
  Toxicity %: 5.089%
  Viability %: 94.91%
A549 cell line; A549, Conc. 0.781 µMol
  Toxicity %: 23.59%
  Viability %: 76.41%
A549 cell line; A549, Conc. 1.562 µMol
  Toxicity %: 38.19%
  Viability %: 61.81%
A549 cell line; A549, Conc. 3.125 µMol
  Toxicity %: 53.18%
  Viability %: 46.82%
A549 cell line; A549, Conc. 6.25 µMol
  Toxicity %: 70.73%
  Viability %: 29.27%
A549 cell line; A549, Conc. 12.5 µMol
  Toxicity %: 89.43%
  Viability %: 10.57%
A549 cell line; A549, Conc. 25 µMol
  Toxicity %: 96.45%
  Viability %: 3.55%
A549 cell line
  IC50: 2469 ± 6 nM
MCF7 cell line
  IC50: 562 ± 7 nM
MCF7 cell line; MCF7, 0.0487 µMol
  Toxicity %: 5.124%
  Viability %: 94.876%
MCF7 cell line; MCF7, 0.0975 µMol
  Toxicity %: 7.124%
  Viability %: 92.876%
MCF7 cell line; MCF7, 0.195 µMol
  Toxicity %: 8.333%
  Viability %: 91.67%
MCF7 cell line; MCF7, 0.391 µMol
  Toxicity %: 38.81%
  Viability %: 61.19%
MCF7 cell line; MCF7, 0.781 µMol
  Toxicity %: 66.75%
  Viability %: 33.25%
MCF7 cell line; MCF7, 1.562 µMol
  Toxicity %: 82.8%
  Viability %: 17.2%
MCF7 cell line; MCF7, 3.125 µMol
  Toxicity %: 91.22%
  Viability %: 8.783%
MCF7 cell line; MCF7, 6.25 µMol
  Toxicity %: 95.14%
  Viability %: 4.861%
MCF7 cell line; MCF7, 12.5 µMol
  Toxicity %: 97.43%
  Viability %: 2.574%
MCF7 cell line; MCF7, 25 µMol
  Toxicity %: 97.06%
  Viability %: 2.941%

## CC(=O)C1C(c2ccc(N(C)C)cc2)c2c(C)nc(SCC#N)c(C#N)c2CC1(C)O (stereo not shown) [Compound 6, 2-[(7-Acetyl-4-cyano-1,6-dimethyl-6-hydroxy-8-(4-N,N-dimethylamino-phenyl)-5,6,7,8-tetrahydroisoquinolin-3-yl)thio]acetonitrile]
[1]; 0.01 µg/mL
  DPPH scavenging, inhibition (%): 69.67 ± 5.65%
[1]; 0.05 µg/mL
  DPPH scavenging, inhibition (%): 83.72 ± 4.08%
[1]
  antioxidant activity compared with Vitamin C: higher result than Vitamin C; also recorded: higher antioxidant activity than Vitamin C
A549 cell line; A549, Conc. 0.0487 µMol
  Viability %: 99.7%
A549 cell line; A549, Conc. 0.0975 µMol
  Toxicity %: 0.50%
  Viability %: 99.5%
A549 cell line; A549, Conc. 0.195 µMol
  Toxicity %: 0.6312%
  Viability %: 99.37%
A549 cell line; A549, Conc. 0.391 µMol
  Toxicity %: 1.46%
  Viability %: 98.54%
A549 cell line; A549, Conc. 0.781 µMol
  Toxicity %: 15.46%
  Viability %: 84.54%
A549 cell line; A549, Conc. 1.562 µMol
  Toxicity %: 29.7%
  Viability %: 70.3%
A549 cell line; A549, Conc. 3.125 µMol
  Toxicity %: 43.83%
  Viability %: 56.17%
A549 cell line; A549, Conc. 6.25 µMol
  Toxicity %: 74.71%
  Viability %: 25.29%
A549 cell line; A549, Conc. 12.5 µMol
  Toxicity %: 88.52%
  Viability %: 11.48%
A549 cell line; A549, Conc. 25 µMol
  Toxicity %: 96.29%
  Viability %: 3.708%
A549 cell line
  IC50: 3736 ± 2 nM
MCF7 cell line
  IC50: 329 ± 5 nM
MCF7 cell line; MCF7, 0.0487 µMol
  Viability %: 80.118%
MCF7 cell line; MCF7, 0.0975 µMol
  Toxicity %: 25.5567%
  Viability %: 74.5543%
MCF7 cell line; MCF7, 0.195 µMol
  Toxicity %: 38.24%
  Viability %: 61.76%
MCF7 cell line; MCF7, 0.391 µMol
  Toxicity %: 59.68%
  Viability %: 40.32%
MCF7 cell line; MCF7, 0.781 µMol
  Toxicity %: 70.71%
  Viability %: 29.29%
MCF7 cell line; MCF7, 1.562 µMol
  Toxicity %: 76.35%
  Viability %: 23.65%
MCF7 cell line; MCF7, 3.125 µMol
  Toxicity %: 85.7%
  Viability %: 14.3%
MCF7 cell line; MCF7, 6.25 µMol
  Toxicity %: 93.38%
  Viability %: 6.618%
MCF7 cell line; MCF7, 12.5 µMol
  Toxicity %: 97.14%
  Viability %: 2.859%
MCF7 cell line; MCF7, 25 µMol
  Toxicity %: 97.34%
  Viability %: 2.655%

## CC(=O)C1C(c2ccc(N(C)C)cc2)c2c(C)nc(SCC(=O)Nc3ccccc3)c(C#N)c2CC1(C)O (stereo not shown) [Compound 7a, 2-[(7-Acetyl-4-cyano-1,6-dimethyl-6-hydroxy-8-(4-N,N-dimethylamino-phenyl)-5,6,7,8-tetrahydroisoquinolin-3-yl)thio]-N-phenylacetamide]
[1]; 0.01 µg/mL
  DPPH scavenging, inhibition (%): 43.26 ± 0.73%
[1]; 0.05 µg/mL
  DPPH scavenging, inhibition (%): 62.96 ± 0.73%
A549 cell line; A549, Conc. 0.04875 µMol
  Toxicity %: 0.09882%
  Viability %: 99.9%
A549 cell line; A549, Conc. 0.0975 µMol
  Toxicity %: 0.1346%
  Viability %: 99.87%
A549 cell line; A549, Conc. 0.195 µMol
  Toxicity %: 0.168%
  Viability %: 99.83%
A549 cell line; A549, Conc. 0.391 µMol
  Toxicity %: 13.91%
  Viability %: 86.09%
A549 cell line; A549, Conc. 0.781 µMol
  Toxicity %: 29.94%
  Viability %: 70.06%
A549 cell line; A549, Conc. 1.562 µMol
  Toxicity %: 41.33%
  Viability %: 58.67%
A549 cell line; A549, Conc. 3.125 µMol
  Toxicity %: 53.33%
  Viability %: 46.67%
A549 cell line; A549, Conc. 6.25 µMol
  Toxicity %: 80.11%
  Viability %: 19.89%
A549 cell line; A549, Conc. 12.5 µMol
  Toxicity %: 91.33%
  Viability %: 8.669%
A549 cell line; A549, Conc. 25 µMol
  Toxicity %: 96.98%
  Viability %: 3.024%
A549 cell line
  IC50: 1586 ± 1 nM
MCF7 cell line
  IC50: 2218 ± 4 nM
MCF7 cell line; MCF7, 0.0487 µMol
  Toxicity %: -5.346%
  Viability %: 105.8%
MCF7 cell line; MCF7, 0.0975 µMol
  Toxicity %: -3.456%
  Viability %: 103.5%
MCF7 cell line; MCF7, 0.195 µMol
  Toxicity %: -2.859%
  Viability %: 102.9%
MCF7 cell line; MCF7, 0.391 µMol
  Toxicity %: 8.047%
  Viability %: 91.95%
MCF7 cell line; MCF7, 0.781 µMol
  Toxicity %: 23.12%
  Viability %: 76.88%
MCF7 cell line; MCF7, 1.562 µMol
  Toxicity %: 33.82%
  Viability %: 66.18%
MCF7 cell line; MCF7, 3.125 µMol
  Toxicity %: 52.98%
  Viability %: 47.02%
MCF7 cell line; MCF7, 6.25 µMol
  Toxicity %: 71.85%
  Viability %: 28.15%
MCF7 cell line; MCF7, 12.5 µMol
  Toxicity %: 91.95%
  Viability %: 8.047%
MCF7 cell line; MCF7, 25 µMol
  Toxicity %: 97.39%
  Viability %: 2.614%
